What was measured:
[1] = test system: peripheral blood lymphocytes; assay: Sister Chromatid Exchange (mutagenicity); format: cell-based, human; settings: FIG. 2, compared with selenite and selenomethionine
Description: FIG. 2 describes the effect that GSSeSG has with respect to the mutagenicity of three selenium containing, cancer treating agents as a function of their respective concentrations. More particularly, the preferred selenodithiol, GSSeSG is contrasted with two other selenium containing compounds, selenite and selenomethionine in the treatment of peripheral blood lymphocytes, i.e., normal human cells taken from different sections of the body. […] As one in the art is aware, in the technique known as Sister Chromatid Exchange (SCE) the particular nucleotide components which comprise the DNA genetic code cross over to form cell mutations which lead to the birth and growth of rapidly dividing neoplastic cells.

[2] = target: T1, elongation factor 2 (EF-2) (Rattus norvegicus, UniProt P05197); settings: cell-free system derived from rats; cited from earlier work
T1 construct: in a cell-free system derived solely from rats

human tumor cell lines = assay: Cell culture assay (microculture tetrazolium/MTT assay); format: cell-based
Description: The purpose of the cell culture assay is a method for measuring at what concentration of the cancer treating agent will inhibit neoplastic cell division or protein synthesis, and thus cause the death of the neoplastic cells. The particular assay technique is a modification of that described by Mosmann, Jour. of Immunol. Meth., 65, 1983, pp. 55-63. The cell lines used for the in vitro assay are: […]
The plating density of each cell type used in the assay is set forth below: […]
The procedure followed involved adding for each cell type 200 microliters of the cell suspension at the concentration determined above, to each well of a 96-well plate. The plates were allowed to incubate for twenty four hours at 37° C. and humidified in the presence of a 5% CO2 atmosphere, whereupon 20 microliters of GSSeSG concentrations ranging from 10^-8 M to 10^-4 M were added to the wells located on the plate. A variety of concentrations of cycloheximide and adriamycin were utilized as a control. The resulting plates were incubated for six days at 37° C., humidified in a 5% CO2 atmosphere and on the final day of the assay, 20 μl were added to each well of [MTT 3-(4,5-dimethylthiazol-2-yl)-2,5-diphenyl tetrazolium bromide], obtained from Sigma Cat #M2128. The MTT is prepared by combining 5mg/ml of a phosphate buffered saline (PBS) solution. […] Upon completion, the optical density of each well was read on an elisa plate reader set at 570nm (test sample) and 630nm (for reference).
FIGS. 4 through 11 provide comparisons of the effects at increasing concentrations of adriamycin and GSSeSG as measured by variations in optical density of various cell solutions. […] Variations in optical density, measured by a spectrophotometer, are indicative of the level of cellular activity. […]

[3] = test system: secondary superficial tumors; assay: Injection at site distant from the tumor; format: in vivo, rats; settings: effective dosages injected at site distant from the tumor
Experimental: It has further been discovered that rats which are injected with effective dosages of GSSeSG at site distant from the tumor will still kill the cancer tumors.

[4] = test system: Malignant Mouse Lymphoid Cells; settings: intraperitoneal injections, mice previously inoculated with tumor cells, versus untreated control; cited from earlier work
[5] = test system: DMBA (7,12-dimethylbenz(a)anthracene) induced tumors; assay: DMBA-induced tumors in rats, injection of agents (Table 1, FIG. 3); format: in vivo
Description: The Table contrasts the results obtained by the desired dosage with the results obtained from four other groups of ten rats; the rats in each group being inoculated with cancer immunotoxins in differing dosages of both GSSeSG, retinol (HPR) and mixtures of each, as well as a control sample of […] which were not administered with cancer treating agents. All one hundred rats were inoculated with DMBA (7,12-dimethylbenz(a)anthracene) so as to induce cancer cell formation, which was then allowed to form tumors over a period of two months prior to testing. […] Thus, Table 1 clearly illustrates both the effectiveness of GSSeSG when utilized in the desired range of proportions and also the fact that even relatively small variations in excess of the crisis zone in its administration will cause severe damage to the host subject, while the proper range of dosages is substantially non-toxic to the treated host.

rat mammary tumor = assay: Direct injection into rat mammary tumor (FIG. 12, FIG. 13); format: in vivo
Experimental: The tumor was induced in each rat by the administration of 7,12-dimethylbenz(a)anthracene and allowed to proliferate to the predetermined sized range of 1.5 to 2.5 centimeters in diameter. The selenodiglutathione was injected at a level of 700 micrograms directly into the central region of the tumor mass fifteen times over the course of thirty days.
FIG. 13 illustrates a table comparing the volume changes of three rat mammary cancer tumors injected over time. The curve marked "C" represents the volume increase in a control tumor injected with eluate from the column but with no selenodithiol. Curves "L" and "H" represent cancer tumors injected according to different treatment schedules of selenodiglutathione. The "L" tumor received a dose of selenodiglutathione of 1.46cc of 7×10^-3 M every forty eight hours for twenty eight days while the "H" tumor received a dose of selenodiglutathione of 2.8cc of 7×10^-3 M every ninety six hours for twenty eight days. […] The control tumor, C, continued to increase in volume dramatically.

[6] = test system: DU-145 Human Prostate Carcinoma Cells; settings: in vitro; cited from earlier work
EF-2 = EF-2 (Rattus norvegicus, UniProt P05197); settings: in vitro amino acid incorporation; cited from earlier work
[7] = test system: Human Breast Cancer Cells; settings: parenteral administration, mice; cited from earlier work
[8] = test system: DMBA-induced mammary tumorigenesis; settings: cited from earlier work
[9] = 1 μg per gram of rat body weight
[10] = retinol alone or GSSeSG mixed with retinol, groups of ten rats

Structure (SMILES): N[C@@H](CCC(=O)N[C@@H](CS[Se]SC[C@H](NC(=O)CC[C@H](N)C(=O)O)C(=O)NCC(=O)O)C(=O)NCC(=O)O)C(=O)O [GSSeSG, selenodiglutathione]
- number of Sister Chromatid Exchanges (inducible mutation) [1]: low number
- effectiveness in inhibiting protein synthesis versus sodium selenite or oxidized glutathione [2]: substantially more effective
- concentration up to which neoplastic cell division increases (human tumor cell lines; FIG. 1): up to 10^-6 M
- concentration at which neoplastic cells survive (purple solution obtained) (human tumor cell lines; MTT, six days incubation): less than 10^-6 M
- concentration inhibiting neoplastic cell division or protein synthesis (purple solution not obtained) (human tumor cell lines; MTT, six days incubation): at least 10^-5 M
- effect on tumors distant from the point of injection [3]: disappearance of secondary superficial tumors
- life span of the animals [4]: increased the life span
- tumor growth [4]: inhibited the tumor growth
- effect on cancer cells [5, 9]: substantial elimination of the cancer cells
- harm to the rats as indicated by bodyweight [5, 9]: substantially no harm to the rats
- mortality of rats ([5]; 2 μg of GSSeSG per gram of bodyweight, ten rats, seventy nine days): all but one of these specimens are dead
- tumor volume change, "L" tumor (rat mammary tumor; 1.46cc of 7×10^-3 M every forty eight hours for twenty eight days, FIG. 13): stopped growing
- tumor volume change, "H" tumor (rat mammary tumor; 2.8cc of 7×10^-3 M every ninety six hours for twenty eight days, FIG. 13): decreased in volume to a level significantly below the initial volume
- detrimental effect to the animal (rat mammary tumor; 700 micrograms into central region of tumor, fifteen times over thirty days): without any detrimental effect
- tumor size (rat mammary tumor; 700 micrograms into central region of tumor, fifteen times over thirty days, FIG. 12): decreased dramatically

Structure (SMILES): CC1=C(/C=C/C(C)=C/C=C/C(C)=C/CO)C(C)(C)CCC1 [retinol, reference compound]
- damage to the rats (bodyweight column) [5, 10]: severe damage to the rats
- effect on cancer [5, 10]: effective in arresting the cancer

Structure (SMILES): O=[Se](O)O [sodium selenite]
- growth of human prostate carcinoma cells [6]: inhibits the growth
- concentration that can inhibit EF-2 (EF-2): 11 µM
- development of cancerous tumors [7]: completely inhibits
- tumorigenesis, high fat fed animals ([8]; high fat fed rats): did not respond as favorably
- tumorigenesis, low fat diets ([8]; rats on low fat diets): decrease tumorigenesis

— patent US5104852A, “Method for the inhibition of the proliferation of cancer cells in a tumor sensitive to treatment with a selenodithiol by the injection into the tumor of a selenodithiol such as selenodiglutathione” (The Ohio State University, priority 1991, dated 1992)
